Assay results from patent US7741346B2, “Angiogenesis inhibitor” (Santen Pharmaceutical Co., Ltd., priority 2001, dated 2010).

| melting point [°C] | SMILES |
| --- | --- |
| 80 | O=C(NCCCc1ccncc1)N(CCC12CC3CC(CC(C3)C1)C2)CCC12CC3CC(CC(C3)C1)C2 [Compound No. 1-56, 1,1-Bis[2-(1-adamantyl)ethyl]-3-[3-(4-pyridyl)propyl]urea] |
| 75 to 76 | CCCCCCCCCCN(CCC12CC3CC(CC(C3)C1)C2)C(=O)NCCCc1ccncc1 [Compound No. 1-32, 1-[2-(1-Adamantyl)ethyl]-1-decyl-3-[3-(4-pyridyl)propyl]urea] |
| 99 to 109 | CN(CCC12CC3CC(CC(C3)C1)C2)C(=O)NCCCc1ccncc1 [Compound No. 1-40, 1-[2-(1-Adamantyl)ethyl]-1-methyl-3-[3-(4-pyridyl)propyl)urea] |
| 101 to 102.59 | O=C(NCCCc1ccncc1)N(O)CCC12CC3CC(CC(C3)C1)C2 [Compound No. 12-1, 1-[2-(1-Adamantyl)ethyl]-1-hydroxy-3-[3-(4-pyridyl)propyl]urea] |
| 49 to 50 | CCCCCN(CCc1ccccc1)C(=O)NCC(C)Cc1ccncc1 (stereo not drawn) [Compound No. 1-115, 3-[2-Methyl-3-(4-pyridyl)propyl]-1-pentyl-1-phenethylurea] |
| 104 to 106.5 | CN(C)CCN(CCC12CC3CC(CC(C3)C1)C2)C(=O)NCCCc1ccncc1 [Compound No. 1-15, 1-[2-(1-Adamantyl)ethyl]-1-[2-(dimethylamino)ethyl]-3-[3-(4-pyridyl)propyl]urea] |
| 81.1 to 84.1 | CC(CNC(=O)N(CCC(F)(F)F)CCC12CC3CC(CC(C3)C1)C2)Cc1ccncc1 (stereo not drawn) [Compound No. 1-117, 1-[2-(1-Adamantyl)ethyl]-3-[2-methyl-3-(4-pyridyl)propyl]-1-(3,3,3-trifluoropropyl)urea] |
| 101.4 to 102.4 | CN(CCN(CCC12CC3CC(CC(C3)C1)C2)C(=O)NCCCc1ccncc1)C(=O)CC(C)(C)C [Compound No. 10-6, 1-[2-(1-Adamantyl)ethyl]-1-[2-[N-(3,3-dimethylbutyryl)-N-methylamino]ethyl]-3-[3-(4-pyridyl)propyl]urea] |
| 124 to 136 | CCCCCN(CCC12CC3CC(CC(C3)C1)C2)C(=O)NCC(Cc1ccncc1)Cc1ccncc1 [Compound No. 1-110, 1-[2-(1-Adamantyl)ethyl]-3-[2,2-bis(4-pyridylmethyl)ethyl]-1-pentylurea] |
| 99 to 103 | CCCN(CCC12CC3CC(CC(C3)C1)C2)C(=O)NCCCc1ccncc1 [Compound No. 1-16, 1-[2-(1-Adamantyl)ethyl]-1-propyl-3-[3-(4-pyridyl)propyl]urea] |
| 107 to 112 | O=C(N(CCCc1ccncc1)Cc1ccccc1)N(CCCc1ccccc1)C1CCCCC1 [Compound No. 1-60, 1-Cyclohexyl(phenyl)methyl-1-(3-phenylpropyl)-3-[3-(4-pyridyl)propyl]urea] |
| 88.5 to 101.5 | CCCCCN(CCC12CC3CC(CC(C3)C1)C2)C(=O)NCc1cccnc1 [Compound No. 1-73, 1-[2-(1-Adamantyl)ethyl]-1-pentyl-3-(3-pyridyl)methylurea] |
| 72 to 77 | CCCCCN(CCC12CC3CC(CC(C3)C1)C2)C(=O)NCC(CC)Cc1ccncc1 (stereo not drawn) [Compound No. 1-108, 1-[2-(1-Adamantyl)ethyl]-1-pentyl-3-[2-(4-pyridylmethyl)butyl]urea] |
| 93 to 96 | CC(C)=CCN(CCC12CC3CC(CC(C3)C1)C2)C(=O)NCCCc1ccncc1 [Compound No. 1-31, 1-[2-(1-Adamantyl)ethyl]-1-(3-methyl-2-butenyl)-3-[3-(4-pyridyl)propyl]urea] |
| 168 to 171 | CCCCCN(CCC12CC3CC(CC(C3)C1)C2)C(=O)NCCCc1cc[n+](C)cc1.[I-] [Compound No. 4-1, 4-[3-[3-[2-(1-Adamantyl)ethyl]-3-pentylureido]propyl]-1-methylpyridinium iodide] |
| 123 to 125 | O=C(NCCCc1ccncc1)N(CCC12CC3CC(CC(C3)C1)C2)CC1CC1 [Compound No. 1-22, 1-[2-(1-Adamantyl)ethyl]-1-cyclopropylmethyl-3-[3-(4-pyridyl)propyl]urea] |
| 84.4 to 85.7 | CCCCCN(CCC12CC3CC(CC(C3)C1)C2)C(=O)NCCCc1ccccn1 [Compound No. 1-83, 1-[2-(1-Adamantyl)ethyl]-1-pentyl-3-[3-(2-pyridyl)propyl]urea] |
| 132 to 134 | CC(C)N(CCC12CC3CC(CC(C3)C1)C2)C(=O)NCCCc1ccncc1 [Compound No. 1-68, 1-[2-(1-Adamantyl)ethyl]-1-isopropyl-3-[3-(4-pyridyl)propyl]urea] |
| 80 to 100 | CCCCCN(CCC12CC3CC(CC(C3)C1)C2)C(=O)NCCc1ccccn1 [Compound No. 1-75, 1-[2-(1-Adamantyl)ethyl]-1-pentyl-3-[2-(2-pyridyl)ethyl]urea] |
| 96 to 98 | CCCN(CCCC12CC3CC(CC(C3)C1)C2)C(=O)NCc1ccncc1 [Compound No. 1-128, 1-[3-(1-Adamantyl)propyl]-1-propyl-3-(4-pyridyl)methylurea] |
| 97.5 to 98.2 | CCN(CCCC12CC3CC(CC(C3)C1)C2)C(=O)NCCCc1ccncc1 [Compound No. 1-130, 1-[3-(1-Adamantyl)propyl]-1-ethyl-3-[3-(4-pyridyl)propyl]urea] |

| melting point [°C] | SMILES |
| --- | --- |
| 106 to 115 | CCN(CCC12CC3CC(CC(C3)C1)C2)C(=O)NCCCc1ccncc1 [Compound No. 1-41, 1-[2-(1-Adamantyl)ethyl]-1-ethyl-3-[3-(4-pyridyl)propyl]urea] |
| 107 to 118 | CCCCCN(CCC12CC3CC(CC(C3)C1)C2)C(=O)NCCc1ccncc1 [Compound No. 1-80, 1-[2-(1-Adamantyl)ethyl]-1-pentyl-3-[2-(4-pyridyl)ethyl]urea] |
| 111 to 116 | CCCCCN(CCC12CC3CC(CC(C3)C1)C2)C(=O)NCC(Cc1ccccc1)Cc1ccncc1 (stereo not drawn) [Compound No. 1-109, 1-[2-(1-Adamantyl)ethyl]-3-[2-benzyl-3-(4-pyridyl)propyl]-1-pentylurea] |
| 119.5 to 121.5 | CCCCCCN(CCC12CC3CC(CC(C3)C1)C2)C(=O)NCCCc1ccncc1 [Compound No. 1-29, 1-[2-(1-Adamantyl)ethyl]-1-hexyl-3-[3-(4-pyridyl)propyl]urea] |
| 109.5 to 118 | CCCCN(CCC12CC3CC(CC(C3)C1)C2)C(=O)NCCCc1ccncc1 [Compound No. 1-57, 1-[2-(1-Adamantyl)ethyl]-1-butyl-3-[3-(4-pyridyl)propyl]urea] |
| 130 to 134.5 | O=C(NCCCc1ccncc1)N(CC=Cc1ccccc1)CCC12CC3CC(CC(C3)C1)C2 [Compound No. 1-34, 1-[2-(1-Adamantyl)ethyl]-1-cinnamyl-3-[3-(4-pyridyl)propyl]urea] |
| 47 to 52 | CN(CCN(CCC12CC3CC(CC(C3)C1)C2)C(=O)NCCCc1ccncc1)C(=O)OC(C)(C)C(Cl)(Cl)Cl [Compound No. 10-10, 1-[2-(1-Adamantyl)ethyl]-1-[2-[N-(1,1-dimethyl-2,2,2-trichloroethoxycarbonyl)-N-methylamino}ethyl]-3-[3-(4-pyridyl)propyl]urea] |
| 133.9 to 134.5 | CCCCCN(CCC12CC3CC(CC(C3)C1)C2)C(=O)NCCNc1ccncc1 [Compound No. 1-126, 1-[2-(1-Adamantyl)ethyl]-1-pentyl-3-[2-(4-pyridylamino)ethyl]urea] |
| 143 to 145.5 | O=C(NCCCc1ccncc1)N(C1CCCCC1)C1CCCCC1 [Compound No. 1-61, 1,1-Dicyclohexyl-3-[3-(4-pyridyl)propyl]urea] |
| 161.8 to 164.4 | Cl.O=C(NCc1ccncc1)N(CCC1CCCCC1)Cc1cccs1 |
| 79.8 to 80.4 | CCCCN(CCCC12CC3CC(CC(C3)C1)C2)C(=O)NCCCc1ccncc1 [Compound No. 1-122, 1-[3-(1-Adamantyl)propyl]-1-butyl-3-[3-(4-pyridyl)propyl]urea] |
| 128 to 130 | O=C(NCCCc1ccncc1)N(CCC12CC3CC(CC(C3)C1)C2)Cc1ccco1 [Compound No. 1-42, 1-[2-(1-Adamantyl)ethyl]-1-furfuryl-3-[3-(4-pyridyl)propyl]urea] |
| 106.2 to 107.3 | O=C(NCCCc1ccncc1)N(CCC12CC3CC(CC(C3)C1)C2)CC(F)(F)F [Compound No. 1-114, 1-[2-(1-Adamantyl)ethyl]-3-[3-(4-pyridyl)propyl]-1-(2,2,2-trifluoroethyl)urea] |
| 133.7 to 137 | CCCCCN(CCC12CC3CC(CC(C3)C1)C2)C(=O)CNCCc1ccncc1.Cl.Cl |
| 47 to 50 | CCCCCNC(=O)N(CCCc1ccncc1)CCC12CC3CC(CC(C3)C1)C2 [Compound No. 1-66, 1-[2-(1-Adamantyl)ethyl]-3-pentyl-1-[3-(4-pyridyl)propyl]urea] |
| 99.9 to 105.2 | CCCCCN(CCC12CC3CC(CC(C3)C1)C2)C(=O)NCCCc1cccnc1 [Compound No. 1-84, 1-[2-(1-Adamantyl)ethyl]-1-pentyl-3-[3-(3-pyridyl)propyl]urea] |
| 96.5 to 108 | CCCCCN(CCC12CC3CC(CC(C3)C1)C2)C(=O)NCc1ccncc1 [Compound No. 1-74, 1-[2-(1-Adamantyl)ethyl]-1-pentyl-3-(4-pyridyl)methylurea] |
| 74.1 to 78.1 | CCCCCN(CCC12CC3CC(CC(C3)C1)C2)C(=O)NCCCCc1ccncc1 [Compound No. 1-87, 1-[2-(1-Adamantyl)ethyl]-1-pentyl-3-[4-(4-pyridyl)butyl]urea] |
| 140 to 146 | CC(=O)NN(CCC12CC3CC(CC(C3)C1)C2)C(=O)NCCCc1ccncc1 [Compound No. 10-1, 1-Acetylamino-1-[2-(1-adamantyl)ethyl]-3-[3-(4-pyridyl)propyl]urea] |
| 142.5 to 144.5 | O=C(NCCCc1ccncc1)N(CCC12CC3CC(CC(C3)C1)C2)Cc1cccs1 [Compound No. 1-27, 1-[2-(1-Adamantyl)ethyl]-3-[3-(4-pyridyl)propyl]-1-(2-thienyl)methylurea] |
| 92.7 to 93.7 | CCN(CCCCC12CC3CC(CC(C3)C1)C2)C(=O)NCCCc1ccncc1 [Compound No. 1-124, 1-[4-(1-Adamantyl)butyl]-1-ethyl-3-[3-(4-pyridyl)propyl]urea] |
